These results are taken from patent publication US20220144826A1, “Heteroaromatic and Heterobicyclic Aromatic Derivatives for the Treatment of Ferroptosis-Related Disorders” (COLLABORATIVE MEDICINAL DEVELOPMENT, LLC, priority 2019, published 2022).

Molecules are shown by their SMILES.

As a reminder, the IC50 is the midpoint of a concentration-inhibition curve. A low value points to inhibition by little substance.

The test system of one assay is N27 rat dopaminergic neural cells. The assay can be described thus: MTT assay in N27 rat dopaminergic neural cells: inhibition of RSL3-induced cell death (ferroptosis). It counts as cell-based. Conditions: Rattus norvegicus, N27, 24 h, ferroptosis induced by 0.5 μM RSL3, 24 hours, viability by MTT. As for the experimental part: MTT Assay in N27 Rat Dopaminergic Neural Cells
N27 rat dopaminergic neural cells (Millipore, SCC048) were cultured in RPMI-1640 media (Wisent, 350-000) supplemented with 1×GlutaMAX (Gibco, 35050-061), 10% FBS (embryonic stem cell qualified; Wisent, 920-040), and 1× Penicillin-Streptomycin (Wisent, 450-201). Cells were grown in humidified tissue culture incubator at 37° C. with 5% CO2, for up to 10 passages. To evaluate the ability of test compounds to inhibit RSL3-induced cell death, N27 cells were seeded in clear 96-well tissue culture plates (Sarstedt, 83.3924) at a density of 15,000 cells/well. On the next day, the medium was changed to fresh complete RPMI-1640. Eight-point dilution series of test compounds were added to the cells. Then, ferroptosis was induced by addition of 0.5 μM RSL3 (vehicle-treated cells served as control). Ferrostatin-1 (Fer-1) was included in each assay as control inhibitor of ferroptosis. Plates were incubated for 24 hours at 37° C. in a tissue culture incubator, then cell viability was determined by MTT assay. Briefly, Thiazolyl Blue Tetrazolium Bromide [3-(4,5-dimethylthiazol-2-yl)-2,5-diphenyltetrazolium bromide or “MTT” ] (Sigma) stock solution (5 mg/mL in PBS, sterilized by filtration) was diluted 1:1 with complete growth medium, and added on the cells to a final concentration of 0.5 mg/mL. Cells were incubated with MTT for 4 hours at 37° C., protected from light, in a humidified, 5% CO2 atmosphere. Medium was then completely removed from the wells by gentle aspiration and converted MTT formazan crystals were dissolved in 150 μL of DMSO. Absorbance of converted dye was measured at 595 nm with background subtraction at 690 nm using the BioTek Cytation5 Microplate Reader. Blank reading (absorbance from wells containing media and vehicle only, no cells) was removed from all sample wells. Viability was calculated as a percentage of control cells (vehicle-treated cells were set as 100% viability). Dose-response curves were drawn and IC50 values were calculated using GraphPad Prism software, version 7.
Molecule `CCCCC(=O)c1cc2c(c(N(S(=O)(=O)CC(C)C)S(=O)(=O)CC(C)C)c1)NCCC2` [Compound B-248, N-isobutylsulfonyl-2-methyl-N-(6-pentanoyl-1,2,3,4-tetrahydroquinolin-8-yl)propane-1-sulfonamide] gave an IC50 of over 3000 nM.
With `CCCCC(=O)c1nc2c(c(NC(C)(C)C)n1)NCCC2` [Compound A-06, 1-[4-(tert-butylamino)-5,6,7,8-tetrahydropyrido[3,2-d]pyrimidin-2-yl]pentan-1-one], the IC50 came out at 76 nM.
The molecule `CCC(C)Nc1ccc(-c2ccc(C)cc2)nc1NC(C)(C)C` [Compound L-02, N^2-tert-butyl-6-(p-tolyl)-N^3-sec-butyl-pyridine-2,3-diamine] had an IC50 of 5 nM.
Still for that read-out and setting: as for `CC1(Nc2nc(-c3cccnc3)ccc2NC2CCOC2)CCOC1` [Compound L-42, N^2-(3-methyltetrahydrofuran-3-yl)-6-(3-pyridyl)-N^3-tetrahydrofuran-3-yl-pyridine-2,3-diamine], the figure is 285 nM; as for `CCC(C)Nc1ccc(-c2ccncc2)nc1NC(C)(C)C` (centres unmarked) [Compound P-22], 1 nM.
The molecule `Cc1ccc(-c2ccc(NC3COC3)c(NC3CCCC3)n2)cc1` [Compound H-81, N^2-cyclopentyl-N^3-(oxetan-3-yl)-6-(p-tolyl)pyridine-2,3-diamine] returned an IC50 of 5 nM.
`CCC(C)Nc1ccc(-c2cccnc2)nc1NC1CCCC1` (centres unmarked) [Compound H-74, N^2-cyclopentyl-6-(3-pyridyl)-N^3-sec-butyl-pyridine-2,3-diamine] came in with an IC50 of 5 nM.
On the same count and under the same terms, for `CCC/C=C/c1nc(NC2CCCC2)c2c(n1)SCC(=O)N2` [Compound B-600, 4-(cyclopentylamino)-2-[(1E)-pent-1-en-1-yl]-5H,6H,7H-pyrimido[4,5-b][1,4]thiazin-6-one] the value was at least 3000 nM.
On the same count and under the same terms, as for `CCCCC(=O)c1nc2c(c(NC3CCCC3)n1)NCCC2` [Compound C-82, 1-[4-(cyclopentylamino)-5,6,7,8-tetrahydropyrido[3,2-d]pyrimidin-2-yl]pentan-1-one], the figure is 84 nM; as for `CCOC(=O)c1cc(N)c2c(c1)OCCN2` [Compound I-85], over 1000 nM; as for `CCCCC(=O)c1cc2c(c(NC(C)(C)C)n1)NCC(C(F)(F)F)C2` (centres unmarked) [Compound R-830], 36 nM.
With `CCC(C)Nc1ccc(-c2ccc(OC)cc2)nc1NC1CCCC1` (centres unmarked) [Compound H-86, N^2-cyclopentyl-6-(4-methoxyphenyl)-N^3-sec-butyl-pyridine-2,3-diamine], the half-inhibitory concentration (IC50) was 8 nM. Compared with the last molecule, the IC50 is about 4.5-fold lower.
Same read-out and setting: as for `CCOC(=O)c1ccc(NC2CCCCC2)c(N)n1` [Compound B-626, FER-1], the figure is 108 nM; as for `CCC(C)Nc1cnc(-c2ccncc2)nc1NC1CCCC1` (centres unmarked) [Compound F-88, N^4-cyclopentyl-2-(4-pyridyl)-N^5-sec-butyl-pyrimidine-4,5-diamine], 106 nM; as for `CCCCC(=O)c1cc(N)c2c(c1)CCCN2` [Compound B-059, 1-(8-amino-1,2,3,4-tetrahydroquinolin-6-yl)pentan-1-one], 149 nM.
Turning to `CC1(Nc2nc(-c3ccc(F)cc3)ccc2NC2CCOC2)CCOC1` (centres unmarked) [Compound M-23, 6-(4-fluorophenyl)-N^2-(3-methyltetrahydrofuran-3-yl)-N^3-tetrahydrofuran-3-yl-pyridine-2,3-diamine], the IC50 is 3 to 6 nM.
The same measure, in the same setting: for `CCC(C)Nc1cnc(-c2ccc(C)cc2)nc1NC1CCCC1` (centres unmarked) [Compound F-69, N^4-cyclopentyl-2-(p-tolyl)-N^5-sec-butyl-pyrimidine-4,5-diamine] the value was 28 nM; for `CCC(C)Nc1ccc(-c2ccc(C)cc2)nc1NC1CCCC1` (centres unmarked) [Compound H-61, N^2-cyclopentyl-6-(p-tolyl)-N^3-sec-butyl-pyridine-2,3-diamine], 7 nM; for `Cc1ccc(-c2nc3c(c(NC4CCCC4)n2)NCCC3)cc1` [Compound A-32, N-cyclopentyl-2-(p-tolyl)-5,6,7,8-tetrahydropyrido[3,2-d]pyrimidin-4-amine], 6 nM.
Molecule `CCCCCc1nc(NC2CCCC2)c2c(n1)SCCN2` [Compound B-601, N-cyclopentyl-2-pentyl-5H,6H,7H-pyrimido[4,5-b][1,4]thiazin-4-amine] came in with an IC50 of 3 nM.
On the same count and under the same terms, for `OC(c1ccc(F)cc1)c1nc2c(c(NC3CCCC3)n1)NCCC2` (centres unmarked) [Compound A-11, [4-(cyclopentylamino)-5,6,7,8-tetrahydropyrido[3,2-d]pyrimidin-2-yl]-(4-fluorophenyl)methanol] the value was 36 nM; for `CCCCC(=O)c1cc2c(c(NC(C)(C)C)n1)NCCC2` [Compound S-168, 1-[8-(tert-butylamino)-1,2,3,4-tetrahydro-1,7-naphthyridin-6-yl]pentan-1-one], 13 nM; for `CCCCC(=O)c1cc2c(c(NC3CCCC3)n1)NCCC2` [Compound B-647, 1-[8-(cyclopentylamino)-1,2,3,4-tetrahydro-1,7-naphthyridin-6-yl]pentan-1-one], 8 nM.
The molecule `Clc1nc2c(c(NC3CCCC3)n1)NCCC2` [Compound J-84] gave an IC50 of 273 nM.
On to `CCCCN(C)c1nc2c(c(NC3CCCC3)n1)NCCC2` [Compound B-434, N2-Butyl-N4-cyclopentyl-N2-methyl-5,6,7,8-tetrahydropyrido[3,2-d]pyrimidine-2,4-diamine], for which the IC50 worked out at 397 nM. The IC50 values of the last two molecules are within 1.5-fold of each other.
`CC#Cc1nc2c(c(NC3CCCC3)n1)NCCC2` [Compound A-12, N-cyclopentyl-2-prop-1-ynyl-5,6,7,8-tetrahydropyrido[3,2-d]pyrimidin-4-amine]: the IC50 was found to be 109 nM. Compared with the last molecule, the IC50 is about 3.6-fold lower.
On the same count and under the same terms, as for `CCOC(=O)c1cc2c(c(NC3CCCC3)c1)NC(C)(C)CC2` [Compound B-273, Ethyl 8-cyclopentylamino-2,2-dimethyl-3,4-dihydro-1H-quinoline-6-carboxylate], the figure is 1040 nM.
With `CC1=Nc2cc(C#N)ccc2NC1(C)C` [Compound Q-912, 2,2,3-trimethyl-1H-quinoxaline-6-carbonitrile], the IC50 was over 3000 nM.
For the molecule `CCOC(=O)c1cc2c(c(NC3CCCC3)c1)NC(=O)CC2` [Compound B-148], inhibition was half-maximal at 1670 nM (IC50).
Molecule `CC(=O)c1nc2c(c(NC3CCCC3)n1)NCCC2` [Compound C-92, 1-[4-(cyclopentylamino)-5,6,7,8-tetrahydropyrido[3,2-d]pyrimidin-2-yl]ethanone] came in with an IC50 of 2070 nM.
In turn, `c1cc(-c2ccc(NC3COC3)c(NC3CCCC3)n2)ccn1` [Compound H-77, N^2-cyclopentyl-N^3-(oxetan-3-yl)-6-(4-pyridyl)pyridine-2,3-diamine] had an IC50 of 13 nM.
In the case of `CCCCOc1nc2c(c(NC3CCCC3)n1)NCCC2` [Compound B-323, 2-Butoxy-N-cyclopentyl-5,6,7,8-tetrahydropyrido[3,2-d]pyrimidin-4-amine], the IC50 was found to be 43 nM. This IC50 is about 3.3-fold higher than that of the molecule before.
`CCCC(=O)c1ccc(N)c(NC2CC(F)(F)C2)n1` [Compound P-46, 1-[5-amino-6-[(3,3-difluorocyclobutyl)amino]-2-pyridyl]butan-1-one] gave a half-maximal inhibitory concentration (IC50) of 498 nM.
In the case of `CCC(C)Nc1ccc(C(F)(F)F)nc1NC1CCCC1` (centres unmarked) [Compound K-65, N^2-cyclopentyl-N^3-sec-butyl-6-(trifluoromethyl)pyridine-2,3-diamine], the IC50 came to 45 nM.
`CCCC#Cc1nc2c(c(NC3CCCC3)n1)NCCC2` [Compound A-27, N-cyclopentyl-2-pent-1-ynyl-5,6,7,8-tetrahydropyrido[3,2-d]pyrimidin-4-amine] displayed an IC50 of 34 nM.
The same measure, in the same setting: as for `CCCCC(O)c1nc2c(c(NC(C)(C)C)n1)NCCC2` (centres unmarked) [Compound A-00, 1-[4-(tert-butylamino)-5,6,7,8-tetrahydropyrido[3,2-d]pyrimidin-2-yl]pentan-1-ol], the figure is 139 nM; as for `c1cncc(-c2ccc(NC3COC3)c(NC3CCCC3)n2)c1` [Compound H-75, N^2-cyclopentyl-N^3-(oxetan-3-yl)-6-(3-pyridyl)pyridine-2,3-diamine], 44 nM.
Still for that read-out and setting: as for `CCCCC(=O)c1cc2c(c(NC3CCCC3)c1)OCCC2` [Compound B-035, 1-[8-(cyclopentylamino)-3,4-dihydro-2H-1-benzopyran-6-yl]pentan-1-one], the figure is over 3000 nM; as for `CCCCC(=O)c1cc(N)c2c(c1)CCCN2Cc1ccccc1` [Compound B-133], 2900 nM; as for `CC1(Nc2nc(-c3ccc(F)cc3)ccc2NC2CCOCC2)CCOC1` (centres unmarked) [Compound N-53, 6-(4-fluorophenyl)-N^2-(3-methyltetrahydrofuran-3-yl)-N^3-tetrahydropyran-4-yl-pyridine-2,3-diamine], 1 nM.

Still in this assay, the particulars now being: Rattus norvegicus, ferroptosis induced by 0.5 μM RSL3, 24 hours, viability by MTT.
On to `CCCCCc1nc(NC2CCCC2)c2c(n1)OCCN2` [Compound B-711, N-cyclopentyl-2-pentyl-5H,6H,7H-pyrimido[4,5-b][1,4]oxazin-4-amine], for which inhibition was half-maximal at 41 nM (IC50).
